Test results reported in article PMC7795425, “Synthesis and Biological Activity of Brassinosteroid Analogues with a Nitrogen-Containing Side Chain” (International Journal of Molecular Sciences, 2020).
“Also recorded” adds a separate entry of the source. Where a name gives a salt, the structure may show the parent alone.

How the values were obtained:
[1] = Calcein AM cytotoxicity assay, CEM; format: cell-based; conditions: human, CEM T-lymphoblastic leukemia cells, IC50 > 50 µM means inactive, read-out: Cytotoxic activity IC50
Procedure: (§1) The effect of the prepared BRs derivatives on the viability (in Calcein AM assays) of BJ human fibroblasts (as an example of a “normal” cell line) and human cancer cell lines of various histopathological origins, including: T-lymphoblastic leukemia CEM, breast carcinoma MCF7 and cervical carcinoma cell line HeLa, was also studied. Cells of all these lines were exposed to six 3-fold dilutions of each drug for 72 h prior to determination of cell survival. The IC50 (concentration leading to 50% inhibition of viability) values obtained from the Calcein AM cytotoxicity assay were calculated. […] All tested BR nitrogen-containing derivatives had no detectable activity, even when tested in concentrations of up to 50 µM.
(§2) The screening cell lines: T-lymphoblastic leukemia CEM; breast carcinoma MCF7 (estrogen-sensitive); cervical carcinoma cell line HeLa; and human foreskin fibroblasts BJ, were obtained from the American Type Culture Collection (Manassas, VA, USA). Cells were cultured in DMEM (Dulbecco’s Modified Eagle Medium, Sigma, St. Louis, MO, USA). Media used were supplemented with 10% fetal bovine serum, 2mM L-glutamine and 1% penicillin–streptomycin. The cell lines were maintained under standard cell culture conditions at 37 °C and 5% CO2 in a humid environment.
(§3) Cells were subcultured twice or three times a week using the standard trypsinization procedure. Cytotoxicity in cancer cell lines after 72 h was determined as described earlier. Control cultures were treated with DMSO alone, and the final concentration of DMSO in the mixture never exceeded 0.6%. Six serial 3-fold dilutions of the test substances were added at time zero in 20 μL aliquots to the microtiter plate wells and the highest final concentration in the wells was 50 μM.
(§4) Table S3: Cytotoxic activities, IC50 (µM/L)a, of compounds in three tumor and one normal fibroblast
(§5) Compound CEM MCF7 HeLa BJ
(§6) a The lowest concentration that kills 50% of cells.
(§7) b Increase of cell proliferation.

[2] = Calcein AM cytotoxicity assay, BJ; format: cell-based; conditions: human, BJ foreskin fibroblasts (normal cell line), IC50 > 50 µM means inactive, read-out: Cytotoxic activity IC50
Procedure: as §1, §2, §3, §4, §5, §6, §7

[3] = tested on: Arabidopsis thaliana L. (Columbia ecotype, Col-0) seedlings; assay: Arabidopsis root sensitivity bioassay; format: in vivo; conditions: for root length, mean: 7-day-old seedlings; for elongation of roots (growth-promoting activity) compared to the control: low concentrations (0.1 and 1 nM)
Procedure: Several bioassays such as the first bean internode, root growth and rice lamina inclination have been developed to evaluate the growth-promoting activity of BR derivatives. In this work, the activity of new BR analogues was evaluated using the Arabidopsis root sensitivity test because of its simplicity and high sensitivity for BRs.. The characteristic effect of exogenously applied BRs on light-grown Arabidopsis is dose-dependent—BRs in higher concentrations cause inhibition of root growth; vice versa, low concentrations are stimulating. The results obtained for 24-epiBL, which was used as a positive control, and the BR derivatives are shown in Figure 2, Figure 3 and Figure S21. […] A similar trend was shown for dimethylammonium hydrochloride 22a and morpholinium hydrochloride 22e with a long side chain. For numerical values of the average, SD and p-value, see Table S2.
The biological activity of the new BRs derivatives was tested by an Arabidopsis sensitivity bioassay which was performed according to [28]. Briefly, seedlings of Arabidopsis thaliana L. (Columbia ecotype, Col-0) were stratified for 2 days at 4 °C and germinated on vertical half-strength Murashige and Skoog (1% w/v sucrose) agar at 22 °C in a 16 h/8 h light–dark cycle. The plates contained concentrations of 24-epiBL (as positive control) and BR derivatives ranging from 0.1 to 10 nM, respectively 100 nM (for selected derivatives only). After 7 days, roots were straightened on solid media plates and scanned with an Epson high-resolution scanner. The entire root length was measured with ImageJ (http://rsbweb.nih.gov/ij/). For each treatment, more than 15 seedlings were analyzed in two biological repeats, and p-values were calculated with the two-tailed Student t-test using Excel software.
(§8) Figure 2 Effect of selected brassinosteroid derivatives on the inhibition of Arabidopsis root length. Seven-day-old Arabidopsis thaliana seedlings (Columbia ecotype, Col-0) were treated with DMSO as control/24epiBL/BR short side chain derivatives; (A)—amides, (B)—amines, (C)—ammonium hydrochlorides. For each treatment, more than 15 seedlings were analyzed in two biological repeats. Error bars represent SD. Asterisks represent significant changes (t-test); * represents p-value < 0.05, in comparison to control.
as §8, with “Figure 3” for “Figure 2”, “control/24epiBL/BR long” for “control/24epiBL/BR short”, “(A)—amides, (B)—ammonium” for “(A)—amides, (B)—amines, (C)—ammonium”
Table S2: Data for figure 2, 3, and S21. P value <0.05(t-test), comparison to control.
control (mean ± SD) 16.3 ± 1.21
*only selected compounds were tested
mean(mm) SD t-test mean (mm) SD t-test mean (mm) SD t-test mean (mm) SD t-test
(1 picture or pasted object on this page, not shown here)

[4] = Calcein AM cytotoxicity assay, MCF7; format: cell-based; conditions: human, MCF7 breast carcinoma cells (estrogen-sensitive), MCF7, 72 h, IC50 > 50 µM means inactive, read-out: Cytotoxic activity IC50
Procedure: as §1, §2, §3, §4, §5, §6, §7

[5] = Calcein AM cytotoxicity assay, HeLa; format: cell-based; conditions: human, HeLa cervical carcinoma cells, IC50 > 50 µM means inactive, read-out: Cytotoxic activity IC50
Procedure: as §1, §2, §3, §4, §5, §6, §7

[6] = 100 nM (only selected compounds), control 14.61 ± 0.85

SMILES	melting point	IC50 at 72 h [1]	IC50 at 72 h [2]	root length, mean ([3]; 0.1 nM, control 16.3 ± 1.21)	root length, mean ([3]; 1 nM, control 16.3 ± 1.21)	root length, mean ([3]; 10 nM, control 16.3 ± 1.21)	root length, mean [3, 6]	elongation of roots (growth-promoting activity) compared to the control [3]	inhibitory effect on Arabidopsis root growth ([3]; tested 0.1 to 10 nM, selected derivatives also 100 nM)	IC50 at 72 h [4]	IC50 at 72 h [5]	concentration inhibiting Arabidopsis root growth ([3]; light-grown seedlings, positive control)
C[C@H](CN(C)C)[C@H]1CCC2C3CC(=O)[C@H]4C[C@H](O)[C@H](O)C[C@]4(C)C3CC[C@@]21C (stereo partly drawn) (as salt: chloride) [16a, N,N-dimethyl-((20S)-2α,3α-dihydroxy-6-oxo-5α-pregnane-20-methyl)aminium chloride]	> 290 °C (dec.)	–	–	–	–	–	–	–	–	–	–	–
CCN(CC)C[C@@H](C)[C@H]1CCC2C3CC(=O)[C@H]4C[C@H](O)[C@H](O)C[C@]4(C)C3CC[C@@]21C (stereo partly drawn) (as salt: chloride) [16b, N,N-diethyl-((20S)-2α,3α-dihydroxy-6-oxo-5α-pregnane-20-methyl)aminium chloride]	> 270 °C (dec.)	–	–	–	–	–	–	–	–	–	–	–
C[C@H](CN1CCCC1)[C@H]1CCC2C3CC(=O)[C@H]4C[C@H](O)[C@H](O)C[C@]4(C)C3CC[C@@]21C (stereo partly drawn) (as salt: chloride) [16c, 1-((20S)-2α,3α-dihydroxy-6-oxo-5α-pregnane-20-methyl)pyrrolidin-1-ium chloride]	> 260 °C (dec.)	–	–	–	–	–	–	–	–	–	–	–
C[C@H](CN1CCCCC1)[C@H]1CCC2C3CC(=O)[C@H]4C[C@H](O)[C@H](O)C[C@]4(C)C3CC[C@@]21C (stereo partly drawn) (as salt: chloride) [16d, 1-((20S)-2α,3α-dihydroxy-6-oxo-5α-pregnane-20-methyl)piperidin-1-ium chloride]	> 280 °C (dec.)	–	–	–	–	–	–	–	–	–	–	–
C[C@H](CN1CCOCC1)[C@H]1CCC2C3CC(=O)[C@H]4C[C@H](O)[C@H](O)C[C@]4(C)C3CC[C@@]21C (stereo partly drawn) (as salt: chloride) [16e, 4-((20S)-2α,3α-dihydroxy-6-oxo-5α-pregnane-20-methyl)morpholin-4-ium chloride]	> 240 °C (dec.)	–	–	–	–	–	–	–	–	–	–	–
C[C@H](C(=O)N(C)C)[C@H]1CC[C@H]2[C@@H]3CC(=O)[C@H]4C[C@H](O)[C@H](O)C[C@]4(C)[C@H]3CC[C@]12C [8a, N,N-dimethyl-(20S)-2α,3α-dihydroxy-6-oxo-5α-pregnane-20-carboxamide]	> 230 °C (dec.)	> 50 µM	> 50 µM	16.12 mm	18.41 mm	16.46 mm	13.329 mm	slight elongation of roots; also recorded: interesting growth-promoting activity	weak inhibition up to the highest tested concentration of 100 nM	> 50 µM	> 50 µM	–
CCN(CC)C(=O)[C@@H](C)[C@H]1CC[C@H]2[C@@H]3CC(=O)[C@H]4C[C@H](O)[C@H](O)C[C@]4(C)[C@H]3CC[C@]12C [8b, N,N-diethyl-(20S)-2α,3α-dihydroxy-6-oxo-5α-pregnane-20-carboxamide]	> 200 °C (dec.)	> 50 µM	> 50 µM	18.41 mm	15.15 mm	16.95 mm	13.836 mm	slight elongation of roots; also recorded: interesting growth-promoting activity	–	> 50 µM	> 50 µM	–
C[C@H](CN(C)C)[C@H]1CCC2C3CC(=O)[C@H]4C[C@H](O)[C@H](O)C[C@]4(C)C3CC[C@@]21C (stereo partly drawn) [16a, N,N-dimethyl-((20S)-2α,3α-dihydroxy-6-oxo-5α-pregnane-20-methyl)aminium chloride]	–	> 50 µM	> 50 µM	18.91 mm	15.64 mm	15.32 mm	13.626 mm	–	–	> 50 µM	> 50 µM	–
CCN(CC)C[C@@H](C)[C@H]1CCC2C3CC(=O)[C@H]4C[C@H](O)[C@H](O)C[C@]4(C)C3CC[C@@]21C (stereo partly drawn) [16b, N,N-diethyl-((20S)-2α,3α-dihydroxy-6-oxo-5α-pregnane-20-methyl)aminium chloride]	–	> 50 µM	> 50 µM	17.27 mm	17.61 mm	16.13 mm	–	–	–	> 50 µM	> 50 µM	–
C[C@H](CN1CCCC1)[C@H]1CCC2C3CC(=O)[C@H]4C[C@H](O)[C@H](O)C[C@]4(C)C3CC[C@@]21C (stereo partly drawn) [16c, 1-((20S)-2α,3α-dihydroxy-6-oxo-5α-pregnane-20-methyl)pyrrolidin-1-ium chloride]	–	> 50 µM	> 50 µM	15.97 mm	14.99 mm	15.16 mm	–	–	–	> 50 µM	> 50 µM	–
C[C@H](CN1CCCCC1)[C@H]1CCC2C3CC(=O)[C@H]4C[C@H](O)[C@H](O)C[C@]4(C)C3CC[C@@]21C (stereo partly drawn) [16d, 1-((20S)-2α,3α-dihydroxy-6-oxo-5α-pregnane-20-methyl)piperidin-1-ium chloride]	–	> 50 µM	> 50 µM	15.32 mm	15.65 mm	17.61 mm	–	–	–	> 50 µM	> 50 µM	–
C[C@H](CN1CCOCC1)[C@H]1CCC2C3CC(=O)[C@H]4C[C@H](O)[C@H](O)C[C@]4(C)C3CC[C@@]21C (stereo partly drawn) [16e, 4-((20S)-2α,3α-dihydroxy-6-oxo-5α-pregnane-20-methyl)morpholin-4-ium chloride]	–	> 50 µM	> 50 µM	17.21 mm	17.61 mm	16.13 mm	13.771 mm	slight elongation of roots; also recorded: interesting growth-promoting activity	–	> 50 µM	> 50 µM	–
CC(C)[C@@H](C)[C@@H](O)[C@H](O)[C@@H](C)[C@H]1CC[C@H]2[C@@H]3COC(=O)[C@H]4C[C@H](O)[C@H](O)C[C@]4(C)[C@H]3CC[C@]12C [24-epiBL, 24-epibrassinolide, reference compound]	–	–	–	15.811 mm	13.855 mm	7.342 mm	6.685 mm	–	–	–	–	≥ 1 nM
